Assay results taken from patent publication US9771589B2, “Treating hepatitis virus infection by modulating microRNAs miR-130a, miR-130b, miR-204, or miR-1236” (priority 2013, dated 2017).

Tests used:
HBV = HBV DNA replication after cotransfection/treatment, Southern blot; type: cell-based, hepatitis B virus (HBV ayw)
Source text: The methods to construct the miRNA expression vectors are as detailed elsewhere. Chen, H. L. et al. PloS one 7, e34116 (2012). PCR products were sub-cloned from TA cloning vector (RBC) to pSuper (OligoEngine, Inc) by Hind III digestion. All plasmids were confirmed by sequencing. Approximately 8-400 fold higher level of microRNA expression was detected by transfection and stem loop RT-PCR analysis. […] The PPARγ and PGC1α expression vectors were from GeneCopoeia.
Human hepatoma Huh7 and HepG2 cells were maintained as described previously Chua, P. K., et al. Journal of virology 84, 2340-2351 (2010), Le Pogam, S., et al., Journal of virology 79, 1871-1887 (2005). In general, the phenotype of viral replication and the effect of microRNA are stronger in HepG2 than Huh7 cells. However, Huh7 cells are easier to passage and transfect. Therefore, we used these two cell lines interchangeably.
Rosiglitazone and GW9662 were from Sigma. HepG2 and Huh7 cells were seeded in 6-well tissue culture plates at 5×10, Quasdorff, M. et al. Journal of viral hepatitis 17, 527-536 (2010) cells/well. At 24 h post-transfection, Rosiglitazone or GW9662 in 0.1% DMSO was added to medium. Culture medium was changed ever two days before harvest.
HBV core particle-associated DNA, total cellular cytoplasmic RNA, and microRNA were analyzed by Northern blot as described previously. […]

[1] = tested on: HBV core protein (HBc), surface antigen (HBsAg) and e antigen (HBeAg); test: HBV protein expression (HBc Western blot; HBsAg, HBeAg ELISA); type: cell-based, hepatitis B virus (HBV ayw)
Source text: (§1) Anti-HBc (Dako), anti-PPARγ (Santa Cruz), anti-GAPDH, anti-PKLR, anti-G6Pase, anti-tubulin, anti-PGC1α (Origene), anti-PCK1 (Abnova), anti-GCK (Biovision), Secondary antibodies include mouse anti-rabbit-HRP, goat anti-mouse-HRP (GeneTex, Taiwan) and donkey anti-goat-HRP (Santa Cruz).
Chua, P. K., et al. Journal of virology 84, 2340-2351 (2010),

HepG2 cells = test: Measurement of glucose production in cell culture; type: cell-based, human
Procedure: The glucose level of HBV transgenic mice was measured using a kit of DRI-CHEM SLIDE GLU-PIII (FUJIFILM, JAPAN). Ten microliters of mouse serum was deposited on a FUJI DRI-CHEM SLIDE GLU-PIII. Glucose oxidase (GOD) catalyzes the oxidization of sample glucose to generate hydrogen peroxide which then reacts with dye precursors and forms red dye. The optical reflection density was measured at 505 nm by the FUJI DRI-CHEM analyzer and converted into the glucose concentration […]. For the measurement of glucose concentration in cell culture, HBV producing cells (HepG2 and Q7 cells) were treated with PPARγ antagonist, GW9662 at indicated concentrations. Twenty-four hours before glucose measurement, the medium was replaced with 1 ml of glucose-free DMEM, supplemented with 2 mM sodium pyruvate. After 16 hrs incubation, 50 μl of medium was collected and the glucose concentration (mM) was measured using the glucose colorimetric assay (Biovision).

NF-κB/p65 = NF-κB/p65 protein level, Western blot; type: cell-based, human; conditions: stable miR-130a expressing HepG2 cells
glucokinase (GCK) = test: GCK expression in stable miR-130a expressing cells; type: cell-based, human
Procedure: as §1
(§2) Briefly, 2 μg of total RNA was reverse transcribed into cDNA using random primers and High Capacity cDNA Reverse Transcription kit (Applied Biosystem) at 37° C. for 120 minutes. The cDNA product was then diluted 100 times for real-time PCR analysis using Power SYBR Green PCR master mix (Applied Biosystem), and the default condition in a 20 μl reaction volume by Applied Biosystems 7500 Real-Time PCR System. Data were analyzed by relative quantification methods (ΔΔCt methods) using 7500 software V2.0.1.
(§3) Approximately one million Huh7 and HepG2 cells were transiently transfected by 3 μg plasmid DNA (pSuper and pSuper-miR-130a) with Polyjet (SignaGen), followed by G418 selection for three weeks. The G418-resistant colonies were pooled together.

[2] = tested on: HBV 3′ UTR (nt 1521-2122); test: 3′ UTR luciferase reporter assay with HBV nt 1521-2122; type: cell-based, hepatitis B virus (HBV ayw); conditions: Huh7 cells, cotransfection with miRNA expression vector
Source text: (§4) Assay for 3′ UTR or enhancer/promoter was as described previously. Chen, H. L., et al., PloS one 7, e34116 (2012).

3′ UTR of PGC1α = test: 3′UTR luciferase reporter assay, PGC1α; type: cell-based, human; conditions: reporter cotransfection assay
Source text: as §4
(§5) An upstream fragment of the miR-130a precursor (−750 to −1 nt), containing putative binding sites for NF-κB/p65, Egr-1, and CREB, was amplified by PCR from human HepG2 genomic DNA. The PCR products were separated by agarose gel electrophoresis, and the isolated DNA fragments were then cloned into the restriction enzyme digested pGL3 Basic Vector (Promega, Madison, Wis.) containing a firefly luciferase reporter (New England Biolab, Ipswich, Mass.). Various promoter deletion plasmids, containing shorter fragments upstream from the miR-130a precursor, were derived from the full-length promoter plasmid by PCR amplification and cloning using various PCR primers (Table 1 above). All the promoter plasmids were confirmed by sequencing. HuH-7 cells were transfected with promoter deletion plasmids for 48 hrs and firefly luciferase activities were then measured and normalized to each cotransfected renilla luciferase level. The full-length 3′UTRs of PPARγ, PGC1α and SP1 were amplified from genomic DNA of HepG2 cells using their respective forward and reverse primers (Table 1), and cloned into a psiCHECK-2 luciferase vector (Promega, Madison, Wis.) (Shih, C. et al. Virology 179, 871-873 (1990)). […]

HBV enhancer II = test: HBV enhancer/promoter luciferase reporter assay; type: cell-based, hepatitis B virus; conditions: Huh7 cells, pGL3/enhII reporter
Source text: as §4

[3] = tested on: HBV pregenomic RNA (pgRNA); test: HBV RNA in transfected cells, Northern blot; type: cell-based, hepatitis B virus (HBV ayw); conditions: HepG2, total cytoplasmic RNA of cotransfected culture
Procedure: HBV core particle-associated DNA, total cellular cytoplasmic RNA, and microRNA were analyzed by Northern blot as described previously. Chua, P. K., et al. Journal of virology 84, 2340-2351 (2010), Le Pogam, S., et al., Journal of virology 79, 1871-1887 (2005).

[4] = tested on: SP1, PPAR α, CEBPb, and HNF4; test: Expression of other hepatic transcription factors in miR-130a expressing cell lines; type: cell-based, human
Procedure: as §2, §3

3′ UTR of PPARγ = test: 3′UTR luciferase reporter assay, PPARγ; type: cell-based, human; conditions: reporter cotransfection assay
Source text: as §4, §5

[5] = HBV-transfected Huh7 cells, increasing concentration of compound

Compound: O=C(Nc1ccccc1)c1cc([N+](=O)[O-])ccc1Cl [GW9662, reference compound]
- HBV replication (HBV; [5]): significantly reduced
- HBV protein expression (secreted HBsAg and HBeAg) [1, 5]: significantly reduced
- glucose level (HepG2 cells; HepG2 cells treated with GW9662 (20 uM), irrespective of HBV-producing status): further increased

Compound: miR-130a: human microRNA, CAGUGCAAUGUUAAAAGGGCAU (SEQ ID NO:1); given as pSuper expression vector or stable expression
- NF-κB/p65 protein level (NF-κB/p65): increased significantly
- GCK mRNA expression (glucokinase (GCK); miR-130a expressing hepatocytes, RT-qPCR): increased mRNA expression
- GCK protein expression (glucokinase (GCK); stable miR-130a expressing HepG2 or Huh7 cells, Western blot): not reduced but increased
- HBV DNA replication (HBV; HepG2 cells cotransfected with HBV DNA, Southern blot): inhibits HBV DNA replication
- HBV protein expression (HBc, HBsAg, HBeAg) ([1]; HepG2 cells): reduce HBV protein expression
- secretion of HBsAg and HBeAg ([1]; media of HepG2 cotransfected with HBV DNA, ELISA): reduces the secretion of HBsAg and HBeAg
- luciferase activity, wild type HBV 3′UTR reporter [2]: no appreciable effect
- luciferase activity, reporter with 3′UTR of PGC1α (3′ UTR of PGC1α): significantly reduced the luciferase activity
- luciferase activity driven by HBV enhancer-II (HBV enhancer II): reduced the luciferase activity driven by HBV enhancer-II
- level of HBV pregenomic RNA (pgRNA) [3]: reduced the level of HBV pregenomic RNA
- glucose level (HepG2 cells; control versus miR-130a producing cells): No significant difference in glucose level
- expression levels of most hepatic transcription factors examined [4]: remained unchanged
- luciferase activity, reporter with 3′UTR of PPARγ (3′ UTR of PPARγ): significantly reduced the luciferase activity
